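Step 1: Grow cells in 96-well plates. Step 2: Expose to compound for 48 hours at 5 concentrations. Step 3: Interpolate endpoints linearly; if unreached, use highest concentration. Abbreviation: GI50, concentration required for 50% inhibition of growth.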 Activity calls are given as the source filed them. No stated cut-off is given here; in the data, active = GI50 up to about 1.1 µM and inactive = higher.
Experiments:
Experiment in all cases: NCI tumour cell line growth inhibition, 48 h
[1] = test system: U-251
[2] = test system: HOP-92
[3] = test system: LOX IMVI
[4] = test system: HT-29
[5] = test system: SF-268
[6] = test system: UACC-257
[7] = test system: OVCAR-8
[8] = test system: SK-OV-3
[9] = test system: NCI-H226
[10] = test system: TK-10
[11] = test system: HCT-15
[12] = test system: MDA-MB-435
[13] = test system: SK-MEL-5
[14] = test system: KM12
[15] = test system: HL-60
[16] = test system: SW-620
[17] = test system: T47D
[18] = test system: M14
[19] = test system: SN12C
[20] = test system: K562

| SMILES | GI50 [1] | GI50 [2] | GI50 [3] | GI50 [4] | GI50 [5] | GI50 [6] | GI50 [7] | GI50 [8] | GI50 [9] | GI50 [10] | GI50 [11] | GI50 [12] | GI50 [13] | GI50 [14] | GI50 [15] | GI50 [16] | GI50 [17] | GI50 [18] | GI50 [19] | GI50 [20] |
| --- | --- | --- | --- | --- | --- | --- | --- | --- | --- | --- | --- | --- | --- | --- | --- | --- | --- | --- | --- | --- |
| CCCn1cnc2c(SCC(=O)O)nc(N)nc21 | > 100 µM (inactive) | > 100 µM (inactive) | > 100 µM (inactive) | > 100 µM (inactive) | > 100 µM (inactive) | > 100 µM (inactive) | > 100 µM (inactive) | > 100 µM (inactive) | > 100 µM (inactive) | > 100 µM (inactive) | > 100 µM | > 100 µM (inactive) | > 100 µM (inactive) | > 100 µM (inactive) | > 100 µM (inactive) | > 100 µM (inactive) | > 100 µM (inactive) | > 100 µM (inactive) | > 100 µM (inactive) | > 100 µM (inactive) |
| Cc1n[nH]c(=O)n1/N=C\CC/C=N\n1c(C)n[nH]c1=O | > 100 µM (inactive) | > 100 µM (inactive) | > 100 µM (inactive) | > 100 µM (inactive) | > 100 µM (inactive) | > 100 µM (inactive) | > 100 µM (inactive) | > 100 µM (inactive) | > 100 µM (inactive) | > 100 µM (inactive) | > 100 µM | > 100 µM (inactive) | > 100 µM (inactive) | > 100 µM (inactive) | > 100 µM (inactive) | > 100 µM (inactive) | > 100 µM (inactive) | > 100 µM (inactive) | > 100 µM (inactive) | > 100 µM (inactive) |
| O=c1cc(NCc2ccncc2)[nH]c(=O)[nH]1 | > 100 µM (inactive) | > 100 µM (inactive) | > 100 µM (inactive) | > 100 µM (inactive) | > 100 µM (inactive) | > 100 µM (inactive) | > 100 µM (inactive) | > 100 µM (inactive) | > 100 µM (inactive) | > 100 µM (inactive) | > 100 µM | > 100 µM (inactive) | > 100 µM (inactive) | > 100 µM (inactive) | > 100 µM (inactive) | > 100 µM (inactive) | > 100 µM (inactive) | > 100 µM (inactive) | > 100 µM (inactive) | > 100 µM (inactive) |
| Cc1ccc(/C=N/Nc2nc3ccccc3s2)s1 | 81.1 µM (inactive) | > 100 µM (inactive) | > 100 µM (inactive) | 40.8 µM (inactive) | 49.8 µM (inactive) | > 100 µM (inactive) | > 100 µM (inactive) | 58.7 µM (inactive) | > 100 µM (inactive) | 69.2 µM (inactive) | 19.4 µM | > 100 µM (inactive) | 38.9 µM (inactive) | 49.1 µM (inactive) | > 100 µM (inactive) | > 100 µM (inactive) | 4.05 µM (inactive) | > 100 µM (inactive) | 12.6 µM (inactive) | 31.5 µM (inactive) |
